The test system of test [1] is PC-3. Nature of the test: Cytotoxicity against human PC-3 cells assessed as cell growth inhibition measured after 72 hrs by MTT assay. The format is functional, cell-based. Particulars: PC-3, 72 h. Background: Formazan colour is commonly taken as a measure of viable cells.
Test [2] concerns HCT-116. Put plainly: Cytotoxicity against human HCT-116 cells assessed as cell growth inhibition measured after 72 hrs by MTT assay. In kind it is functional, cell-based. To be noted: HCT-116, 72 h.
Test [3] has as its system SW480. Put plainly: Cytotoxicity against human SW480 cells assessed as cell growth inhibition measured after 72 hrs by MTT assay. To be noted: SW480, 72 h. In kind it is functional, cell-based.
In test [4] the test system is A549. Put plainly: Cytotoxicity against human A549 cells assessed as cell growth inhibition measured after 72 hrs by MTT assay. To be noted: A549, 72 h. In kind it is functional, cell-based.
Test [5] deals with SW480. Put plainly: Antiproliferative activity against human SW480 cells assessed as reduction in cell number at IC50 measured after 72 hrs by trypan blue dye based assay relative to control. The format is functional. Also noted: scale not given: the % may be the effect or the level left.
For test [6], the system named is PC-3. Nature of the test: Antiproliferative activity against human PC-3 cells assessed as reduction in cell number at IC50 measured after 72 hrs by trypan blue dye based assay relative to control. In kind it is functional. Also noted: scale not given: the % may be the effect or the level left.
Test [7] concerns K562. Put plainly: Antiproliferative activity against human K562 cells assessed as reduction in cell viability at IC50 measured after 72 hrs by trypan blue dye based assay relative to control. The format is functional.
Test [8] has as its system HCT-116. Nature of the test: Antiproliferative activity against human HCT-116 cells assessed as reduction in cell viability at IC50 measured after 72 hrs by trypan blue dye based assay relative to control. In kind it is functional.
Test [9] deals with SW480. Nature of the test: Antiproliferative activity against human SW480 cells assessed as reduction in cell viability at IC50 measured after 72 hrs by trypan blue dye based assay relative to control. In kind it is functional.
Test [10] concerns PC-3. Nature of the test: Induction of apoptosis in human PC-3 cells assessed as viable cells at IC50 incubated for 72 hrs by Annexin V-FITC/PI staining based flow cytometric analysis (reference value: 94.4 %). In kind it is functional. (In general: Flow cytometry measures light scatter and fluorescence of single cells or particles in a stream.)
Test [11] concerns PC-3. Nature of the test: Induction of apoptosis in human PC-3 cells assessed as early apoptotic cells at IC50 incubated for 72 hrs by Annexin V-FITC/PI staining based flow cytometric analysis (reference value: 0.3 %). In kind it is functional.
Test [12] has as its system PC-3. Nature of the test: Induction of apoptosis in human PC-3 cells assessed as late apoptotic cells at IC50 incubated for 72 hrs by Annexin V-FITC/PI staining based flow cytometric analysis (reference value: 1.7 %). The format is functional.
Test [13] relates to PC-3. Put plainly: Induction of apoptosis in human PC-3 cells assessed as necrotic cells at IC50 incubated for 72 hrs by Annexin V-FITC/PI staining based flow cytometric analysis (reference value: 3.6 %). In kind it is functional.
Test [14] has as its system SW480. Nature of the test: Induction of apoptosis in human SW480 cells assessed as viable cells at IC50 incubated for 72 hrs by Annexin V-FITC/PI staining based flow cytometric analysis (reference value: 97.7 %). In kind it is functional.
For test [15], the system named is SW480. Nature of the test: Induction of apoptosis in human SW480 cells assessed as early apoptotic cells at IC50 incubated for 72 hrs by Annexin V-FITC/PI staining based flow cytometric analysis (reference value: […]). In kind it is functional.
The test system of test [16] is SW480. Nature of the test: Induction of apoptosis in human SW480 cells assessed as late apoptotic cells at IC50 incubated for 72 hrs by Annexin V-FITC/PI staining based flow cytometric analysis (reference value: 0.8 %). In kind it is functional.
Test [17] relates to SW480. Put plainly: Induction of apoptosis in human SW480 cells assessed as necrotic cells at IC50 incubated for 72 hrs by Annexin V-FITC/PI staining based flow cytometric analysis (reference value: 0.1 %). In kind it is functional.
The subject of test [18] is HMEC-1. Nature of the test: Induction of apoptosis in human HMEC-1 cells assessed as viable cells at IC50 incubated for 72 hrs by Annexin V-FITC/PI staining based flow cytometric analysis (reference value: 90.6 %). The format is functional.
Test [19] concerns HMEC-1. Put plainly: Induction of apoptosis in human HMEC-1 cells assessed as early apoptotic cells at IC50 incubated for 72 hrs by Annexin V-FITC/PI staining based flow cytometric analysis (reference value: 2.4 %). In kind it is functional.
Test [20] deals with HMEC-1. Nature of the test: Induction of apoptosis in human HMEC-1 cells assessed as late apoptotic cells at IC50 incubated for 72 hrs by Annexin V-FITC/PI staining based flow cytometric analysis (reference value: 4.7 %). The format is functional.
Test [21] deals with PC-3. Nature of the test: Antiproliferative activity against human PC-3 cells assessed as reduction in cell viability at IC50 measured after 72 hrs by trypan blue dye based assay relative to control. In kind it is functional.
Test [22] has as its system HaCaT. Put plainly: Induction of apoptosis in human HaCaT cells at IC50 incubated for 72 hrs by Annexin V-FITC/PI staining based flow cytometric analysis. The format is functional, cell-based.
Test [23] relates to PC-3. Nature of the test: Induction of apoptosis in human PC-3 cells assessed as increase in caspase-3/7 activity at IC50 incubated for 24 hrs by Glo assay relative to control. In kind it is functional.
The test system of test [24] is HCT-116. Put plainly: Induction of apoptosis in human HCT-116 cells assessed as increase in caspase-3/7 activity at IC50 incubated for 24 hrs by Glo assay. The format is functional, cell-based.
In test [25] the target is 5-hydroxytryptamine receptor 2A (Rattus norvegicus, UniProt P14842). Put plainly: Displacement of [3H]ketanserin from Sprague-Dawley rat 5-HT2A receptor assessed as inhibition constant measured after 60 mins by competitive binding assay.
Sequence of 5-hydroxytryptamine receptor 2A (P14842 whole entry): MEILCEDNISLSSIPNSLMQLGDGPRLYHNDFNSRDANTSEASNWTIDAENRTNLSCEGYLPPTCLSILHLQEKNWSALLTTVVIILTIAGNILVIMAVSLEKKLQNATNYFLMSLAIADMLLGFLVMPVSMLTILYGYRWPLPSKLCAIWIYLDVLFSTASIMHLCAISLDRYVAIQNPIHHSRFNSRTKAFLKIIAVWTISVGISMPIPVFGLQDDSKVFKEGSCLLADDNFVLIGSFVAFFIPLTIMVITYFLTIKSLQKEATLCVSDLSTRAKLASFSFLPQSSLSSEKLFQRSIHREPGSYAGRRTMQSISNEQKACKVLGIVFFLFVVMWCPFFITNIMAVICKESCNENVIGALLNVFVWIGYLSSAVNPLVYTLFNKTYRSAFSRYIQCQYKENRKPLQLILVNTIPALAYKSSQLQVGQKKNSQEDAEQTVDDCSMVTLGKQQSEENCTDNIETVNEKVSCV
The subject of test [26] is SW-620. Put plainly: Antiproliferative activity against human SW620 cells assessed as reduction in cell number at IC50 measured after 72 hrs by trypan blue dye based assay relative to control. In kind it is functional. Also noted: scale not given: the % may be the effect or the level left.
Test [27] concerns SW-620. Put plainly: Antiproliferative activity against human SW620 cells assessed as reduction in cell viability at IC50 measured after 72 hrs by trypan blue dye based assay relative to control. The format is functional.
The subject of test [28] is SW-620. Nature of the test: Induction of apoptosis in human SW620 cells assessed as viable cells at IC50 incubated for 72 hrs by Annexin V-FITC/PI staining based flow cytometric analysis (reference value: 92.9 %). The format is functional.
The subject of test [29] is SW-620. Nature of the test: Induction of apoptosis in human SW620 cells assessed as early apoptotic cells at IC50 incubated for 72 hrs by Annexin V-FITC/PI staining based flow cytometric analysis (reference value: 5.2 %). In kind it is functional.
Test [30] relates to SW-620. Nature of the test: Induction of apoptosis in human SW620 cells assessed as late apoptotic cells at IC50 incubated for 72 hrs by Annexin V-FITC/PI staining based flow cytometric analysis (reference value: 1.2 %). In kind it is functional.
The test system of test [31] is SW-620. Nature of the test: Induction of apoptosis in human SW620 cells assessed as necrotic cells at IC50 incubated for 72 hrs by Annexin V-FITC/PI staining based flow cytometric analysis (reference value: 0.7 %). In kind it is functional.
Test [32] has as its system HCT-116. Nature of the test: Induction of apoptosis in human HCT-116 cells assessed as increase in caspase-3/7 activity at IC50 incubated for 24 hrs by Glo assay relative to control. The format is functional.
Test [33] has as its system HCT-116. Nature of the test: Antiproliferative activity against human HCT-116 cells assessed as decrease in IL-6 level at IC50 measured after 72 hrs by ELISA assay relative to control. Also noted: scale not given: the % may be the effect or the level left. In kind it is functional. A general note: ELISA stands for enzyme-linked immunosorbent assay.
The subject of test [34] is SW-620. Put plainly: Antiproliferative activity against human SW620 cells assessed as decrease in IL-6 level at IC50 measured after 72 hrs by ELISA assay relative to control. Also noted: scale not given: the % may be the effect or the level left. In kind it is functional.
Test [35] deals with 5-hydroxytryptamine receptor 2A (Rattus norvegicus) (UniProt P14842). Put plainly: Displacement of [3H]ketanserin from Sprague-Dawley rat 5-HT2A receptor measured after 60 mins by competitive binding assay.
Sequence of 5-hydroxytryptamine receptor 2A (Rattus norvegicus) (P14842 whole entry): as above

Activity calls are given as the source filed them. The rule behind the calls is not given here.

As to `CC12C(=O)C(C)(C(c3ccccc3)=C1c1ccccc1)C1C(=O)N(CCCCN3CCN(c4cccc(Cl)c4)CC3)C(=O)C12` (stereo unspecified), the 50% inhibitory concentration (IC50) in test [1] came to 8.61 µM; in test [2] it was 6.19 µM; in [3], 8.3 µM; in [4], 25.6 µM. Further, the Activity in test [5] was 39%; in [6], 29%; in test [7] it was 30%; in test [8] it was 16%; in [9], 21%; in [10], 78.5%. In addition, the Activity in [11] is recorded as 3.3%; in test [12], 16.2%; in test [13], 2.1%; in [14] it was 81.9%; in test [15] it was 16.8%; in [16], 1.2%. Also, the Activity in test [17] was determined as 0.1%; in test [18], 86.8%; in test [19], 3.5%; in test [20] it was 7.8%; in test [21], 26%; in [23], 70%. The result in [22] and in test [24] was inactive. Besides, the Ki in test [25] worked out at 25.3 µM.
In the case of `CC12C(=O)C(C)(C(c3ccccc3)=C1c1ccccc1)C1C(=O)N(CCCCN3CCN(c4ccccn4)CC3)C(=O)C12` (stereo unspecified), the half-inhibitory concentration (IC50) in test [1] is 21.2 µM; in test [2], 8.38 µM; in test [3] it was 12.1 µM; in test [4] it was 16.1 µM. The Activity in test [7] amounted to 37%; in test [8], 17%; in test [18], 95.5%; in test [19], 1.4%; in [20], 1.4%. Besides, the result in test [22] and in [24] was inactive. Moreover, the Ki in [25] was determined as 4.7 µM.
On to `COc1ccccc1N1CCN(CCCCN2C(=O)C3C(C2=O)C2(C)C(=O)C3(C)C(c3ccccc3)=C2c2ccccc2)CC1` (stereo unspecified), for which the IC50 in [1] came out at 14.6 µM; in test [2], 8.89 µM; in test [3], 7.41 µM; in [4] it was 16.2 µM. In addition, the Activity was determined as 40% in test [5]; 27% in [26]; 44% in [7]; 34% in [8]; 22% in test [9]; 27% in test [27]. Besides, the Activity is given as 87.1% in test [14]; 11.1% in test [15]; 1.7% in test [16]; 0.1% in test [17]; 89.2% in test [28]; 7.6% in [29]. The Activity was 1.8% in test [30]; 1.4% in [31]; 94.3% in test [18]; 2.2% in [19]; 1.8% in test [20]; 53% in [32]. The Activity in [33] amounted to 53%; in test [34], 31%. In [22], the outcome was inactive. The inhibition constant (Ki) in test [25] was found to be 0.2 µM.
In the case of `CC12C(=O)C(C)(C(c3ccccc3)=C1c1ccccc1)C1C(=O)N(CCCCN3CCN(c4ncccn4)CC3)C(=O)C12` (stereo unspecified), the IC50 stood at 20.4 µM in test [1], 4.63 µM in test [2], 15.8 µM in [3] and 18.1 µM in [4]. Also, the Activity stood at 28% in test [7]; 36% in [8]; 91.7% in [18]; 4.6% in test [19]; 2.4% in [20]; 137% in test [32]. The Activity in test [33] worked out at 53%. Besides, the result in test [22] and in test [35] was inactive.

What is called IC50 is the midpoint of a concentration-inhibition curve. The Ki is a measure of affinity in units of concentration, obtained from inhibition or displacement.

For the origin of these results see ChEMBL document CHEMBL5329202, “New aryl-/heteroarylpiperazine derivatives of 1,7-dimethyl-8,9-diphenyl-4-azatricyclo[5.2.1.02,6]dec-8-ene-3,5,10-trione: Synthesis and preliminary studies of biological activities” (Bioorg Med Chem, 2023).
